# Laboratory results: patent US6558952B1, “Treatment for diabetes” (Waratah Pharmaceuticals, Inc., priority 1992, dated 2003)
# Marks after values point to notes of the source that are not given here.
# Test system: normal Wistar rats
# Assay: Pancreatic insulin content in normal rats treated with TGF-α and gastrin
# Format: in vivo, rat
# Settings: i.p. 0.8 μg/day each for 10 days, n=5, mean +/− SEM
# Experimental: Animals. Mice, FVB and CD strain, were obtained from Taconic Farms, Inc., Germantown, N.Y. The TGF-α transgenic line MT-42 used, which expresses high levels of TGF-α from a metallothionein promoter, is described in Jhappan et al, Cell, 61:1137-1146 (1990). Normal Wistar and Zucker rats were allowed normal chow ad libidum with free access to water and were acclimatized for one week prior to initiation of each study. Freshly prepared streptozotocin at a dose of 80 mg/kg body weight was administered by I.V. five to seven days after induction of diabetes, the rats were randomly allocated into groups for subsequent treatment. Hormones, TGF-α and rat gastrin were reconstituted in sterile normal saline containing 0.1% BSA. […]
# At the end of the study period (10 days), all animals were sacrificed and samples of pancreas taken as follows: five biopsy specimens (1-2 mg) of pancreatic tissue were taken from separate representative sites in each rat pancreas and immediately snap frozen in liquid nitrogen for analysis of insulin content. […] Pancreatic insulin content values were corrected according to protein content and finally expressed as μg insulin/mg pancreatic protein. All values calculated as mean +/− SEM and statistical significance evaluated using Student's 2-sample t-test.
substance,measurement,value
"TGF-α: recombinant Human TGF-α, an EGF receptor ligand, reconstituted in sterile saline containing 0.1% BSA",Pancreatic Insulin Content,30.4 +/− 7.4* μg insulin/mg protein
